Test results taken from ChEMBL document CHEMBL1151544, “Biarylcarboxamide inhibitors of phosphodiesterase IV and tumor necrosis factor-” (Bioorg Med Chem Lett, 1997).

Assays:
[1] = Ability to block the release of TNF-alpha in human monocytes; format: functional, cell-based
[2] = test system: Mus musculus; experiment: Inhibition of LPS stimulated TNF-alpha release in mice at 1 mg/kg; format: functional
[3] = test system: U-937; experiment: Ability to elevate intracellular levels of cAMP in human U937 cells; format: functional, cell-based
[4] = species: Homo sapiens; experiment: Ability to block the release of TNF-alpha in human whole blood; format: functional
[5] = test system: Mus musculus; experiment: Inhibition of LPS stimulated TNF-alpha release in mice at 10 mg/kg; format: functional
[6] = biological target: Phosphodiesterase 4 (Homo sapiens, UniProt P27815+Q08499+Q07343+Q08493); experiment: Tested for its ability to inhibit the hydrolysis of cAMP by human monocyte cytosol phosphodiesterase; format: protein assay

| Compound | IC50 [1] | IC50 [3] | also measured |
| --- | --- | --- | --- |
| COc1ccc(-c2ccc(C(N)=O)c(C(F)(F)F)c2)cc1OC1CCCC1 | 1170 nM |  |  |
| COc1ccc(-c2ncc(C(N)=O)cc2Cl)cc1OC1CCCC1 | 360 nM |  |  |
| COc1ccc(-c2ccc(C(=O)O)cc2)cc1O[C@H]1CC2CCC1C2 (stereo not given in full) | 140 nM |  |  |
| COc1ccc(C2CNC(=O)C2)cc1OC1CCCC1 (stereo not given) [ROLIPRAM] | 310 nM | 1230 nM | inhibition in vivo at 1 mg/kg [2]: 68% |
| COc1ccc(-c2ccc(C(N)=O)c(Cl)c2)cc1OC1CCCC1 | 82 nM |  |  |
| COc1ccc([C@]2(C#N)CC[C@@H](C(=O)O)CC2)cc1OC1CCCC1 [CILOMILAST] | 290 nM | 3630 nM | IC50 [4]: 6120 nM; inhibition in vivo at 10 mg/kg [5]: 59.4% |
| COc1ccc(-c2ccc(C(N)=O)cc2)cc1OC1CCCC1 | 26 nM | 81 nM | IC50 [4]: 450 nM; IC50 [6]: 5910 nM |
| COc1ccc(-c2ccc(C(N)=O)c(C)c2)cc1OC1CCCC1 | 190 nM |  |  |
| COc1ccc(-c2ccc(C(N)=O)cn2)cc1OC1CCCC1 | 80 nM |  |  |
| COc1ccc(-c2ccc(C(N)=O)cc2Cl)cc1OC1CCCC1 | 260 nM |  |  |
| COc1ccc(-c2ccc(C(N)=O)cc2)cc1O[C@H]1CC2CCC1C2 (stereo not given in full) | 24 nM | 22 nM | IC50 [4]: 180 nM; IC50 [6]: 3610 nM |
| COc1ccc(-c2ccc(C(N)=O)nc2)cc1O[C@H]1CC2CCC1C2 (stereo not given in full) | 9 nM | 49 nM | IC50 [4]: 140 nM; IC50 [6]: 1070 nM |

More lines, main results first:

| IC50 [1] | IC50 [3] | Compound | also measured |
| --- | --- | --- | --- |
| 120 nM |  | COc1ccc(-c2ccc(C(N)=O)nc2)cc1OC1Cc2ccccc2C1 |  |
| 320 nM |  | COc1ccc(-c2ccc(C(N)=O)cc2)cc1OC1Cc2ccccc2C1 |  |
| 180 nM |  | COc1ccc(-c2ccc(C(N)=O)nc2)cc1OCCc1ccccc1 |  |
| 2310 nM |  | COc1ccc(-c2ccc(C(N)=O)nc2)cc1OCCCc1ccccc1 |  |
| 37 nM | 46 nM | COc1ccc(-c2ccc(C(N)=O)nc2)cc1OC1CCCC1 | IC50 [4]: 180 nM; inhibition in vivo at 1 mg/kg [2]: 65.2%; IC50 [6]: 340 nM |
